Test results published in US5449667A, “Amidothiophosphate derivative and insecticide, nematocide and acaricide containing the same as active ingredient” (priority 1993, dated 1995).

What was measured:
[1] = system: larvae of Spodoptera litura; experiment: Insecticidal activity against larvae of Spodoptera litura; type: in vivo; conditions: 144 h, 4-instar larvae, artificial bait, after six days
Description: Biological Test 1 Insecticidal Activity Against Larvae of Spodoptera litura
Emulsifiable concentrates were prepared for each of the present compounds according to the formulation example 1. Thirteen grams of artificial bait for Spodoptera litura were placed in a polyethylene cup (diameter: 11 cm) and impregnated with 2 ml of the emulsifiable concentrate diluted with water (500 ppm). Ten 4-instar larvae of Spodoptera litura were put in the polyethylene cup. After six days, the mortality of the larvae was examined.

[2] = system: larvae of Nilaparvata lugens; experiment: Insecticidal activity against larvae of Nilaparvata lugens; type: in vivo; conditions: 500 ppm aqueous solution, rice stalk dip, approximately 30 larvae, after six days
Description: Biological Test 2 Insecticidal Activity Against Larvae of Nilaparvata lugens
A stalk of a rice plant was dipped for one minute in a 500 ppm aqueous solution obtained by diluting each emulsifiable concentrate prepared from each of the present compounds according to the formulation example 1 and then air-dried. The rice plant stalk was placed in a polyethylene cup (diameter: 5.5 cm) where filter paper (diameter: 5.5 cm) impregnated with 1 ml of water was put. Approximately 30 larvae of Nilaparvata lugens were put in the polyethylene cup. After six days, the activity was evaluated according to the following criteria:
B: the number of the living larvae is not greater than 5
C: the number of the living larvae is 6 or more

Blattella germanica = experiment: Insecticidal activity against Blattella germanica; type: in vivo; conditions: 24 h, 0.7 ml of 500 ppm on filter paper, ten male cockroaches, after one day
Description: Biological Test 3 Insecticidal Avtivity Against Blattella germanica
(§1) Filter paper of 5.5 cm in diameter was laid in the bottom of a polyethylene cup (diameter: 5.5 cm). After 0.7 ml of a 500 ppm aqueous solution obtained by diluting each emulsifiable concentrate prepared from each of the present compounds according to the formulation example 1 was dropped on the filter paper and approximately 30 mg of sucrose was uniformly scattered and put on the filter paper as bait, ten male cockroaches (Blattella germanica) were left in the cup with a cover. After one day, the mortality was examined for the cockroaches.

Musca domestica = experiment: Insecticidal activity against Musca domestica; type: in vivo; conditions: 24 h, 0.7 ml of 500 ppm on filter paper, ten female house flies, after one day
Description: Biological Test 4 Insecticidal Activity Against Musca domestica
as §1, with “scattered,” for “scattered”, “female house flies (Musca domestica)” for “male cockroaches (Blattella germanica)”, “flies.” for “cockroaches.”

[3] = system: larvae of Diabrotica undecimpunctata; experiment: Insecticidal activity against larvae of Diabrotica undecimpunctata; type: in vivo; conditions: 1 ml of 50 ppm on filter paper, approximately thirty eggs, after eight days
Description: Biological Text 5 Insecticidal Activity Against Larvae of Diabrotica undecimpunctata
Filter paper of 5.5 cm in diameter was laid in the bottom of a polyethylene cup (diameter: 5.5 cm). After 1 ml of a 50 ppm aqueous solution obtained by diluting each of the emulsifiable concentrate prepared from each of the present compounds according to the formulation example 1 was dropped on the filter paper and one sprouting corn crop was placed as bait on the paper, approximately thirty eggs of Diabrotica undecimpunctata were left on the filter paper. After eight days, the rate of hatched larvae was examined. The activity were evaluated according to the following criteria:
B: Mortality not less than 90% but less than 100%
C: Mortality less than 90%

root-knot nematodes = experiment: Activity against root-knot nematodes; type: in vivo; design: key: -: substantially no root knots; +: several to ten odds root knots; ++: larger number of root knots (heavier damage than +); conditions: 25 ppm active ingredient in soil, tomato root, after four weeks
Description: Biological Test 6 Activity Against Root-knot Nematodes
One ml of a 500 ppm aqueous solution of each of the present compounds obtained by diluting each emulsifiable concentrate prepared from each of the present compounds according to the formulation example 1 was mixed with 19 g of soil contaminated with root-knot nematodes (concentration of active ingredient in soil: 25 ppm). After the soil was kept at 27° C. for 24 hours, the root of a tomato plant (approximately two weeks after sprouting) in a cup was covered with the soil and some water was given to the plant. After four weeks, damage to the root of the tomato plant was evaluated according to the following criteria:
-: substantially no root knots
+: several to ten odds root knots
++: larger number of root knots (heavier damage than +)

[4] = system: larvae of Culex pipiens pallens; experiment: Insecticidal activity against larvae of Culex pipiens pallens; type: in vivo; conditions: 3.5 ppm active ingredient in water, twenty last-instar larvae, after one day
Description: Biological Test 7 Insecticidal Activity Against Larvae of Culex pipiens pallens
Each of emulsifiable concentrates prepared from each of the present compounds according to the formulation example 1 was diluted with water, and 0.7 ml of the diluted solution was added to 100 ml of ion-exchanged water (concentration of active ingredient: 3.5 ppm). Twenty last-instar larvae of Culex pipiens pallens were left in the water. After one day, the activity was evaluated according to the following criteria:
A: Mortality not less than 90%
B: Mortality not less than 10% but less than 90%
C: Mortality less than 10%

Tetranychus cinnabarinus = experiment: Activity against Tetranychus cinnabarinus; type: in vivo; design: key: -: substantially no damage; +: little damage; ++: heavy damage; conditions: 500 ppm, 15 ml spray plus 2 ml soil injection, kidney bean, after eight days
Description: Biological Test 8 Activity Against Tetranychus cinnabarinus
Ten male mites (Tetranychus cinnabarinus) per leaf were placed on a pot-planted kidney bean (Phasseolus vulgaris: seven days after sowing) and kept in a thermostatic chamber. After six days, 15 ml of a 500 ppm aqueous solution obtained by diluting each emulsifiable concentrate of each of the present compounds according to the formulation example 1 was sprayed in a pot simultaneously with injection of 2 ml of the solution into soil. After eight days, damage to the plant by Tetranychus cinnabarinus was evaluated according to the following criteria:
-: substantially no damage

[5] = Acute toxicity in oral application to mice; conditions: mouse, in vivo, 5 mg/kg, ICR male mice, after seven days
Description: Biological Test 9 Acute Toxicity in Oral Application to Mice
Each of the present compound was diluted with corn oil to a predetermined concentration. After subjecting the mice to a twenty-hour fasting, 0.1 ml of the diluted solution per 10 g weight was forcibly applied into the stomach of each ICR male 6-week old mouse (weight: 24 to 31 g). The mice were given food and water four hours after the application and thereafter regularly fed and watered, and kept in a cage. After seven days, the mortality was examined for the mice (4 mice/group).

Structure (SMILES) | mortality at 500 ppm [1] | Activity [2] | mortality at 500 ppm (Blattella germanica) | mortality at 500 ppm (Musca domestica) | Activity [3] | Activity (root-knot nematodes) | Activity [4] | Activity (Tetranychus cinnabarinus) | mortality at 168 h [5]
CCCSP(=O)(OC)N(CC#N)C(=O)OCC (stereo not drawn) [Compound 2] | 100% | A (no living larvae) | 100% | 100% | A (Mortality 100%) | - | A (Mortality not less than 90%) | - | 
CCOC(=O)N(CC#N)P(=O)(OC)SC(C)CC (stereo not drawn) [Compound 6] | 100% | A (no living larvae) | 100% | 100% | A (Mortality 100%) | - | A (Mortality not less than 90%) | - | 
CCCSC(=O)N(CC#N)P(=O)(OCC)SC(C)CC (stereo not drawn) [Compound 12] | 100% |  | 100% | 100% | A (Mortality 100%) | - | A (Mortality not less than 90%) | - | 
CCOC(=O)N(CCC#N)P(=O)(OCC)SC(C)CC (stereo not drawn) [Compound 20] | 100% |  | 100% | 100% | A (Mortality 100%) | - | A (Mortality not less than 90%) | - | 
CCOP(=O)(SC(C)CC)N(CC#N)C(=O)OCC(C)C (stereo not drawn) [Compound 18] | 100% | A (no living larvae) | 100% | 100% | A (Mortality 100%) | - | A (Mortality not less than 90%) | - | 
CCC(C)SP(=O)(OC)N(CC#N)C(=O)Oc1ccccc1 (stereo not drawn) [Compound 15] |  |  |  |  |  |  |  | - | 
CCC(C)SP(=O)(NC)OC (stereo not drawn) [A, reference compound] |  |  |  |  |  |  |  |  | 100%
CCCSP(=O)(OC)N(CC#N)C(=O)OC (stereo not drawn) [Compound 1] | 100% | A (no living larvae) | 100% | 100% | A (Mortality 100%) | - | A (Mortality not less than 90%) | - | 
CCOP(=O)(SC(C)CC)N(CC#N)C(=O)Oc1ccccc1 (stereo not drawn) [Compound 14, O-ethyl S-sec-butyl N-cyanomethyl N-phenoxycarbonyl phosphoroamidothiolate] | 100% | A (no living larvae) | 100% | 100% | A (Mortality 100%) | - | A (Mortality not less than 90%) | - | 
CCOP(=O)(SC(C)CC)N(CC#N)C(=O)c1ccccc1 (stereo not drawn) [Compound 16] | 100% | A (no living larvae) | 100% | 100% | A (Mortality 100%) | - | A (Mortality not less than 90%) | - | 
CCCSP(=O)(OC)N(CC#N)C(=O)OC(C)C (stereo not drawn) [Compound 3] | 100% | A (no living larvae) | 100% | 100% | A (Mortality 100%) | - | A (Mortality not less than 90%) | - | 
CCCSP(=O)(OCC)N(CC#N)C(=O)OCC (stereo not drawn) [Compound 8] | 100% | A (no living larvae) | 100% | 100% | A (Mortality 100%) | - | A (Mortality not less than 90%) | - | 
CCCSP(=O)(OCC)N(CC#N)C(=O)OC (stereo not drawn) [Compound 7] | 100% | A (no living larvae) | 100% | 100% | A (Mortality 100%) | - | A (Mortality not less than 90%) | - | 
CCC(C)SP(=O)(OC)N(CC#N)C(=O)OC (stereo not drawn) [Compound 4] | 100% | A (no living larvae) | 100% | 100% | A (Mortality 100%) | - | A (Mortality not less than 90%) | - | 
CCOC(=O)N(CC#N)P(=O)(OCC)SC(C)CC (stereo not drawn) [Compound 10] | 100% |  | 100% | 100% | A (Mortality 100%) | - | A (Mortality not less than 90%) | - | 
CCOP(=O)(SC(C)CC)N(CC#N)C(=O)SC (stereo not drawn) [Compound 11] | 100% |  | 100% | 100% | A (Mortality 100%) | - | A (Mortality not less than 90%) | - | 
CCCSP(=O)(OC)N(CCC#N)C(=O)SC (stereo not drawn) [Compound 5] | 100% |  |  | 100% | A (Mortality 100%) | - |  | - | 
CCOP(=O)(SC(C)CC)N(CC#N)C(=O)OC(C)C (stereo not drawn) [Compound 17] | 100% | A (no living larvae) | 100% | 100% | A (Mortality 100%) | - | A (Mortality not less than 90%) | - | 
CCCSC(=O)N(CCC#N)P(=O)(OCC)SC(C)CC (stereo not drawn) [Compound 19] |  |  | 100% | 100% | A (Mortality 100%) | - | A (Mortality not less than 90%) | - | 
